Results on three substances are retold here after US8871706B2, “Method for inhibiting inflammation and pre-inflammatory cytokine/chemokine expression using a ghrelin analogue” (Ipsen Pharma S.A.S., priority 2007, dated 2014).

Assay [1] relates to IL-1β and IL-1RI gene expression in the hypothalamus and brainstem. Put plainly: Continuous infusion in 5/6 nephrectomized rats: central inflammatory transcripts. It counts as in vivo. The conditions noted are these: Sham/Saline 1.00. As for the experimental part:
(§1) F344/NTacfBR male rats (Taconic Farms, Inc., Germantown, N.Y., U.S.A.) were housed two to a cage, fed rat chow (diet 5001, Purina Mills, Inc., St. Louis, Mo., U.S.A.) and acclimated for at least three days prior to use.
(§2) A 5/6 nephrectomy was performed in two stages. The test subjects were initially anesthetized with standard rat cocktail and placed prone in a clean environment. A 1 cm posterior incision was made on the right flank through which the right kidney was located. For animals undergoing nephrectomy, the renal capsule was removed and the upper and lower third of the kidney was transected and the resultant wound cauterized leaving the middle third of the kidney with the renal artery and vein intact. For animals receiving a sham operation, the renal capsule was opened up and cauterized to simulate the manipulations performed in the nephrectomy. The external surgical wounds were closed by suturing and the test subject was isolated to facilitate recovery.
(§3) Nine days following the initial surgery, the animals were again anesthetized and placed prone in the surgical area. A 1 cm incision was made on the left side of the subject's abdomen and the left kidney was isolated. For animals undergoing nephrectomy, the renal capsule was removed and the vasculature was tied off by suturing. The vascular bundle was then transected distal to the suture and the entire kidney removed. Any residual bleeding was cauterized. For animals in the sham group, the renal capsule was removed and cauterized. The external surgical wounds were closed with suture. While still under anesthesia, osmotic mini-pumps were placed in all test subjects. A 1 cm incision was made in the midline overlying the posterior thorax at the level of the forelimbs and the underlying sub-cutaneous space was opened via blunt dissection. The osmotic minipumps were placed inside and the incision and closed with suture. This procedure marked the first day (“Day 0”) of treatment.
(§4) Each compound was dissolved in vehicle solution (2% inactivated rat serum, 5% Tween-80) sonicated and filtered through a […] syringe filter.
After sacrifice, blood, brain, stomach and muscle were collected. A subset of the rats had their hypothalami dissected out, preserved in RNAlater solution (Applied Biosystems, Inc., Foster City, Calif., U.S.A.) and stored at −70° C. for extraction of RNA and RT-PCR analysis. A subset of the rats had their hypothalami and brainstems dissected out, preserved in RNAlater solution and stored at −70° C. for extraction of RNA and RT-PCR analysis. Hypothalamic blocks were dissected by making coronal transections at the optic chiasm and at the intersection between the hypothalamus and the mammalary bodies and sagital transections along the optic tracks. Cortex was then removed at the level of the corpus callosom. Brainstem blocks were dissected by removal of the cerebellum and coronal transections at the rostral border of the pons and at the spinal cord.
One-way ANOVA was used to determine differences among the nephrectomy and sham groups using a Bonferoni post-hoc test; P<0.05 was considered significant. In the case of the serum cytokines, each individual set of data was considered by ANOVA and the composite of all of the cytokine levels were considered together after normalizing all levels to the Sham/Saline group using a mixed model analysis for a trend for cytokines values among the different groups. This model takes into account the propensity of some animals to have higher or lower cytokine levels across all of the different cytokines and accounts for within-sample variability.

Assay [2] concerns mouse peritoneal macrophages. Put plainly: LPS-stimulated cytokine secretion from mouse peritoneal macrophages. It counts as cell-based. The conditions noted are these: in vitro. As for the experimental part: Mouse peritoneal macrophages were elicited by intraperitoneal (i. p.) injection of 2 ml of 4% Brewer's thioglycollate medium (Difco, Detroit, Mich., U.S.A.) into male BALB/c mice aged 6 to 10 weeks (Ace Animals, Inc., Boyertown, Pa., U.S.A.). Peritoneal exudate cells were obtained 72 hours after injection by peritoneal lavage with ice-cold RPMI 1640 medium (Sigma-Aldrich, St. Louis, Mo., U.S.A.). Peritoneal exudate cells containing lymphocytes and macrophages were washed twice and re-suspended in ice-cold RPMI 1640 medium supplemented with 2% heat-inactivated fetal calf serum “FCS” (Life Technologies, Rockville, Md., U.S.A.) and were seeded in flat-bottomed 96-well microtiter plates (Corning Glass, Corning, N.Y., U.S.A.) at 8×10^4 cells per well in a final volume 200 μl. The cells were incubated at 37° C. for 2 hours to adhere.

Another assay has as its system LPS-induced endotoxemia. Put plainly: In vivo LPS/cytokine assay in a mouse model. The arrangement: species or system mice. The conditions noted are these: 5 and 10 nmoles i.p. 10 minutes prior to 5 μg LPS i.p.; serum 2 hours post-LPS.
Assay [3] relates to human peripheral blood monocytes. Nature of the assay: LPS/cytokine assay in human peripheral blood mononuclear cells. It is filed as cell-based. The conditions noted are these: 30 minutes pre-incubation, LPS 100 ηg/ml, 6 hours; ELISA. As for the experimental part: Human Peripheral Blood Mononuclear Cells (cat #7200) were procured for the assay (Seracare Diagnostics, Gaithersburg, Md., U.S.A.). Frozen vials were thawed and washed once with Phosphate Buffered Saline (Thermo Fisher Scientific, Inc., Waltham, Mass., U.S.A.). Cells were then counted and plated into 96-well dishes. […] Plates were analyzed with a Spectramax® Reader using Softmax Pro software (Spectramax, Inc., Sunnyvale, Calif., U.S.A.).
Background: ELISA stands for enzyme-linked immunosorbent assay.

In another assay the test system is serum cytokines. Nature of the assay: Continuous infusion of ghrelin analogues in 5/6 nephrectomized rats: serum cytokines. It counts as in vivo. Conditions: 150 ηmol/kg/day s.c. osmotic mini-pump; for change of serum IL-10 relative to the nephrectomy/saline group: CKD rats; for serum GM-CSF / serum IL-1-α (second listing) / serum IL-1α / serum IL-6 / serum IL-10 (anti-inflammatory cytokine) / serum TNF-α: nephrectomized rats. As for the experimental part: as §1, §2, §3, §4
Rat serum samples were collected and tested for cytokines IL-1α, IL-1β, IL-2, IL-4, IL-6, IL-10, GM-CSF, INF-γ and TNF-α using a Bio-Plex rat cytokine 9-Plex assay (Bio-Rad Laboratories, Hercules, Calif., U.S.A.) according to the manufacturer's instructions for use thereof.
The pre-mixed standards were reconstituted in 0.5 ml of a Bio-Plex […] serum standard diluent generating a stock concentration of 50,000 pg/ml for each cytokine. The standard stock was serially diluted in the Bio-Plex rat serum standard diluent to generate eight points for a standard curve. The assay was performed in a 96 well filtration plate supplied with the assay kit. Pre-mixed beads (50 μl) coated with target capture antibodies were transferred to each well of the filtration plate and washed twice with Bio-Plex wash buffer. The samples were diluted (1:4) in the Bio-Plex serum sample diluent. Pre-mixed standards or diluted samples (50 μl) were added to each well containing washed beads. The plate was shaken and incubated at room temperature for thirty minutes at a low speed (300 rpm). After incubation and washing, pre-mixed biotin conjugated detection antibodies were added to each of the wells. The plate was thereafter incubated for approximately thirty minutes and shaken at a low speed (300 rpm). After incubation and washing, strepavidin-PE were added to each well. The incubation was terminated after shaking for ten minutes at room temperature. After washing, the beads were re-suspended in 125 μl of Bio-Plex assay buffer. Beads were read on the Bio-Plex suspension array system (Bio-Rad Laboratories, Hercules, Calif., U.S.A.). The accumulated data was analyzed using Bio-Plex Manager software version 3.0 with 5 PL curve fitting.
One-way ANOVA was used to determine differences among the nephrectomy and sham groups using a Bonferoni post-hoc test; P<0.05 was considered significant. […]

Assay [4] relates to TNBS-induced colitis. Nature of the assay: Acute colon inflammation model (TNBS-induced colitis). It counts as in vivo, mice. As for the experimental part:
In an effort to examine the ability of the novel ligands of native ghrelin of the instant application to ameliorate inflammation of the colon in vivo, inflammation was induced in a mouse model and thereafter said subjects were treated with a novel ghrelin analogue of the instant application.
(§5) Male SJL mice (Charles River Laboratories, Wilmington, Mass., U.S.A.) approximately 5 to 6 weeks of age were employed. The guidelines proposed by the committee for the Care of Laboratory Animal Resources Commission of Life Sciences-National Research Council were followed to minimize animal pain and distress. Each animal received rodent laboratory chow and ad libitum water.
Acute colon inflammation was induced in the test subjects by administering 3 mg of […] (Thermo Scientific Pierce Protein Research Products, Waltham, Mass., U.S.A.) (TNBS) in 50% ethanol via a catheter inserted intrarectally from the test subject's anus. Control mice received the same volume of 50% ethanol without the TNBS. […] Five mice from both groups were sacrificed 4 days post-TNBS-induced challenge.
Body weight for all test subjects was measured every day. FIG. 27 Serum samples were tested for interferon-gamma by ELISA (Millipore, Inc., Billerica, Mass., U.S.A.). […]
The colons of the sacrificed test subjects at day 4 and day 10 were removed and measured.

Assay [5] concerns TNBS-induced colitis. Nature of the assay: Established colitis model (TNBS). It is filed as in vivo, mice. The conditions noted are these: single 50 nM dose ip on days 6, 7 and 8 post-TNBS. As for the experimental part: In an effort to examine the ability of the novel ligands of native ghrelin of the instant application to reduce inflammation of the colon in vivo, inflammation was induced in a mouse model and thereafter said subjects were treated with a novel ghrelin analogue of the instant application.
as §5
Acute colon inflammation was induced in the test subjects by administering 3 mg of […] (Thermo Scientific Pierce Protein Research Products, Waltham, Mass., U.S.A.) (TNBS) in 50% ethanol via a catheter inserted intrarectally from the test subject's anus on the day the study commenced and then again approximately 7 days thereafter. Control mice received the same volume of 50% ethanol without the TNBS.
Body weight for all test subjects was measured every day. Macroscopic evaluation of colon inflammation was performed on the 9th day after inducing TNBS-induced colitis.
The colons of the sacrificed test subjects were removed and measured.

The next assay concerns 3T3-L1 adipocytes. Put plainly: In vitro cytokine lipolysis assay in 3T3-L1 adipocytes (TNF-α induced lipolysis, glycerol content). It is filed as cell-based. Conditions: 1, 10 or 100 ηM, 10 minutes pre-treatment; 20 ηg/ml recombinant murine TNF-α, 24 hours. As for the experimental part: The claimed compounds were tested for their ability to ameliorate cytokine levels. […] In addition, it has been determined that extracellular glucose is required for TNF-α mediated adipocyte lipolysis (Green, A. et al., Diabetes, (2004), 53 (1):74-81). Glycerol, generated by triglyceride breakdown, is released into the extracellular space through aquaporin adipose. Extracellular glycerol is easily assayed by incubation with glycerol kinase (to produce glycerol phosphate), glycerol phosphate oxidase (to produce H2O2), and horseradish peroxidase in the presence of a calorimetric substrate. As such, free glycerol can be assayed as a marker for adipolysis.
In the assay protocol, 3T3-L1 adipocytes were permeabilized and preincubated with the ghrelin analogues of the present invention. In particular, 3T3-L1 preadipocytes were obtained from 3T3-L1 fibroblasts (ATCC Deposit No. CL-173 described in U.S. Pat. No. 4,003,789). […]
The glycerol content was determined using an Adipolysis Assay Kit (Millipore Corporation, Temecula, Calif., U.S.A.).

Method for LPS-induced endotoxemia: In an effort to examine the ability of the novel ligands of native ghrelin of the instant application to modulate inflammatory cytokine expression in vivo, mice were treated with ghrelin prior to an LPS administration.
Male 22-24 g CD1 mice (Charles River Laboratories, Wilmington, Mass., U.S.A.) were used.
Mice were sacrificed 2 hours post-LPS challenge and serum was collected via heart puncture and stored −80° C.
Mouse serum was used with Lincoplex™ custom 7-plex immunoassay for TNF-α (FIG. 3), IL-1β, IL-6 (FIG. 6), IL-10 and GM-CSF (Linco Research, Inc., St. Charles, Mo., U.S.A.). The assay was performed according to the manufacturer's instructions. Plates were run on a Luminex® 200 analyzer (Luminex, Austin, Tex., U.S.A.) using Masterplex CT™ v1.0 software for acquisition and Masterplex™ QT v2.5 software for analysis (MiraiBio, Hitachi Software Engineering Co., Yokohama, JP).

As to “H-Inp-D-Bal-D-Trp-Phe-Apc-NH2 [Example #27]”, in assay [1], the “expression of IL1-RI in the brainstem” value is recorded as 0.75+/−0.18, the “transcript levels of IL-1R in the hypothalamus” value was 0.77+/−0.17, the “transcript levels of IL-1β in the brainstem” value is on record as 1.34+/−0.46 and the “transcript levels of IL-1β in the hypothalamus” value is reported as 1.54+/−0.42. Also, in assay [2], the “LPS-stimulated IL-6 secretion” value was “inhibition” and the “LPS-stimulated TNF-α secretion” value was “inhibition”. Moreover, the “anti-inflammatory effect on LPS-induced endotoxemia (TNF-α, IL-6, IL-10 and IL-13 expression in vivo)” value with LPS-induced endotoxemia is “inhibition of TNF-α, IL-6, IL-10 and IL-13 expression”. For the same substance, in assay [3], the “LPS-stimulated IL-6 secretion” value is “inhibition”, the “LPS-stimulated IL-10 secretion” value is “inhibition” and the “LPS-stimulated TNF-α secretion” value was “inhibition”. Also, in the assay with serum cytokines, the “change of serum IL-10 relative to the nephrectomy/saline group” value was “significant increase”, the “serum GM-CSF” value is 8.01+/−2.83, the “serum IL-1-α (second listing)” value is 46.58+/−9.87 and the “serum IL-1α” value was 3.84+/−1.62. In the assay with serum cytokines, the “serum IL-6” value is on record as 98.41+/−36.66, the “serum IL-10 (anti-inflammatory cytokine)” value is given as 419.26+/−38.71 and the “serum TNF-α” value is recorded as 45.81+/−6.23. In addition, the “IFN-γ production in vivo” value in the assay with TNBS-induced colitis [4] (5 nmolar and 50 nmolar dose ip approximately 12 hours after TNBS, serum ELISA, day 4) is “inhibited”. Further, in the assay on TNBS-induced colitis [4] (day 4 and day 10, 5 nM or 50 nM dose ip), the “colon size (length) of sacrificed test subjects” value was “smaller colons”. Also, in the assay with TNBS-induced colitis [5], the colitis in vivo entry is given as “effectively inhibited” and the “colon size (length) of sacrificed test subjects” value is “smaller colons”. In addition, the “lipolysis in the adipocytes induced by TNF-α (glycerol content)” value in the assay with 3T3-L1 adipocytes is on record as “significantly inhibited”.
For “H-Gly-Ser-Ser-Phe-Leu-Ser-Pro-Glu-His-Gln-Arg-Val-Gln-Gln-Arg-Lys-Glu-Ser-Lys-Lys-Pro-Pro-Ala-Lys-Leu-Gln-Pro-Arg-NH2 [hGhrelin(1-28)-NH2, reference compound]”, in assay [1], the “expression of IL1-RI in the brainstem” value is 0.72+/−0.12, the “transcript levels of IL-1R in the hypothalamus” value is reported as 0.78+/−0.26, the “transcript levels of IL-1β in the brainstem” value is on record as 1.27+/−0.60 and the “transcript levels of IL-1β in the hypothalamus” value is reported as 0.98+/−0.46. Also, in the assay with serum cytokines, the “serum GM-CSF” value is given as 5.24+/−1.93, the “serum IL-1-α (second listing)” value was 49.52+/−10.03, the “serum IL-1α” value is on record as 3.92+/−2.39 and the “serum IL-6” value is listed as 52.42+/−18.68. In addition, in the assay on serum cytokines, the “serum IL-10 (anti-inflammatory cytokine)” value is given as 242.41+/−27.51 and the “serum TNF-α” value is recorded as 34.71+/−14.00.
As to “(Aib^2, Glu^3(NH-hexyl))hGhrelin(1-28)-NH2 (GXEFLSPEHQRVQQRKESKKPPAKLQPR; Aib2, Glu3 NH-hexyl, C-terminal amide; Ghrelin Analogue) [Example #13]”, in assay [3], the “LPS-stimulated IL-6 secretion” value is listed as “inhibition”, the “LPS-stimulated IL-10 secretion” value is given as “inhibition” and the “LPS-stimulated TNF-α secretion” value was “inhibition”. Moreover, in the assay on serum cytokines, the “change of serum IL-10 relative to the nephrectomy/saline group” value is “significant increase”, the “serum GM-CSF” value is given as 7.01+/−2.05, the “serum IL-1-α (second listing)” value is reported as 57.37+/−7.48 and the “serum IL-1α” value is given as 3.50+/−2.49. In the assay on serum cytokines, the “serum IL-6” value is given as 83.65+/−21.71, the “serum IL-10 (anti-inflammatory cytokine)” value was 594.83+/−55.22 and the “serum TNF-α” value is 47.04+/−3.36.
